Assay results: patent publication US12391660B2, “Heteroaromatic acetamide derivative, and preparation and use thereof” (Hangzhou Westan Pharmaceutical Technology Co., Ltd, priority 2019, dated 2025)

target: T1, human TRPA1 (Homo sapiens (Human), UniProt O75762); assay: FLIPR assay of inhibitory activity on human TRPA1 (calcium ion flux fluorescence); assay type: cell-based; conditions: HEK293 cells stably expressing human TRPA1
Protocol: 1. FLIPR Assay of Inhibitory Activity on Human TRPA1
A calcium ion flux fluorescence method (FLIPR assay) was adopted to measure the inhibitory activity of compounds on human TRPA1 channel. The literature reports of Lee and Chen et al. may be referred to for the method [Lee et al. Br J Pharmacol 2008, 153 (8): 1739-1749] [Chen et al. Pain 2011, 152(5):1165-72].
A HEK293 recombinant cell strain stably expressing human TRPA1 (Creative Biogene, NY) was cultured in DMEM (Thermo Fisher Scientific, Shanghai) medium (containing 10% calf serum, 5 μg/ml Blasticidin and 400 ug/ml G418). The incubator was under a condition of 37° C. and air humidity with 5% CO2.
TRPA1 cells were seeded in a 96-well analysis plate at a density of 75,000 cells per well (100 ul/well), and cultured overnight in an incubator at 37° C. and 5% CO2. On the second day, incubation was continued overnight under the same condition to induce the expression of TRPA1 after the culture medium in each well was poured out and a fresh supplement with the same culture medium containing 0.1 μg/ml Tetracycline was added. The further next day, the culture medium was pour out, a DMEM culture solution (also containing 2.5 mM Probenicid) containing 5 μM Fluo-4 AM (Molecular Probes) was added to each well, and incubation was conducted at 37° C. for 1 hour.
The compound was dissolved in 100% DMSO to prepare a 30 mM stock solution which was stored at −20° C. On the day of use, the compound stock solution was thawed at room temperature. Each compound was subjected to 1:5 serial dilution using DMSO medium at a starting concentration of 30 μM with 9 concentration points on a 96-well plate. Each compound was diluted in duplicate for testing. Ruthenium Red was used as the positive control compound and the same dilution was carried out at a starting concentration of 3 μM.
The cell analysis plate was placed in an FLIPR instrument […], and the compound in the compound plate was added to the corresponding hole on the cell analysis plate (First addition) via an automatic program, and the calcium ion fluorescence signal was recorded to determine whether the compound had agonistic activity. After 10 minutes, CaCl2 (Second addition) was added a final concentration of 3 mM to each well to stimulate intracellular calcium flux signals. Ca^++-dependent fluorescence signal was monitored continuously at 538 nm wavelength to analyze the inhibitory activity of the compounds.
The data was collected and analyzed using a FLIPR program. The fluorescence peak value was used to evaluate the inhibitory (or agonistic) activity of the compounds at each concentration. EXCEL and PRISM programs were used to calculate the IC50 value of the compounds.

T1 sequence (O75762 whole entry): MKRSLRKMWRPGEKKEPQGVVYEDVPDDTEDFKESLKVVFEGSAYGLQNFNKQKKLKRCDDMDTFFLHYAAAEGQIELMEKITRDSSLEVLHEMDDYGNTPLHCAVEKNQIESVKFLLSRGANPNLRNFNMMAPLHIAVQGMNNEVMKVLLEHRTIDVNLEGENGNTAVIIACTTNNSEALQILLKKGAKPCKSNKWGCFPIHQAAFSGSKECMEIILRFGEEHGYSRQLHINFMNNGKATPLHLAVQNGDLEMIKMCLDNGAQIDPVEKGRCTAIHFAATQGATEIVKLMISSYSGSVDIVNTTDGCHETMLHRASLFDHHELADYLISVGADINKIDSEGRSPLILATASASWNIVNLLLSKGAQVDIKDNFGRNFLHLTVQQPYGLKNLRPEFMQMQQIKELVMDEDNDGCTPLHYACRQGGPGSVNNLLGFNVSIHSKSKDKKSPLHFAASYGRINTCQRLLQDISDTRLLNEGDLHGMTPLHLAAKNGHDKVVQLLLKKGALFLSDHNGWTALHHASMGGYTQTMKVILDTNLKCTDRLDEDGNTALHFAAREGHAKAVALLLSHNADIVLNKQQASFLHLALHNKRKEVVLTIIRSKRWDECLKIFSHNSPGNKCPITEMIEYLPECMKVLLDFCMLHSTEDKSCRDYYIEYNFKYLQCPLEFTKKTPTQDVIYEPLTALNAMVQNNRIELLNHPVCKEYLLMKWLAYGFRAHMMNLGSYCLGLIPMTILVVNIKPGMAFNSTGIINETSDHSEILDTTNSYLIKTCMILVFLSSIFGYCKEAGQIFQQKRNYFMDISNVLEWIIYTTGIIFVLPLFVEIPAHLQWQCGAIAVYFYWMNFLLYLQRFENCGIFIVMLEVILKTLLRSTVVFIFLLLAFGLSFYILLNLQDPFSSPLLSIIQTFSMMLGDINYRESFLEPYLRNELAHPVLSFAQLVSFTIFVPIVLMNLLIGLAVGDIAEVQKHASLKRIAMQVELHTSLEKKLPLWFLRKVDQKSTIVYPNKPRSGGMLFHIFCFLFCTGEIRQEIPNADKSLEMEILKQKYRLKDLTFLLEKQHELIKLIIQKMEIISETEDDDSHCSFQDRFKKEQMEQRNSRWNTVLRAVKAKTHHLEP

SMILES	IC50 [µM]
N#Cc1ccc(NC2(C(=O)N3CCN(c4cccc(C(F)(F)F)n4)CC3)CCCC2)cc1 [Compound 11, 4-((1-(4-(6-(trifluoromethyl)pyridin-2-yl)piperazine-1-carbonyl)cyclopentyl)amino)benz onitrile]	0.019
Cn1cc(C#N)cc1OC1(C(=O)N2CCC(C(C)(C)C)CC2)CCCC1 [Compound 65, 5-((1-(4-(tert-butyl)piperidine-1-carbonyl)cyclopentyl)oxy)-1-methyl-1H-pyrrole-3-car bonitrile]	1.07
CC(C)(C)N1CCN(C(=O)C2(Sc3ccc(C#N)cc3)CCCC2)CC1 [Compound 66, 4-((1-(4-(tert-butyl)piperazine-1-carbonyl)cyclopentyl)sul-fanyl)benzonitrile]	0.105
N#Cc1ccc2c(c1)CC(C(=O)N1CCN(c3cccc(C(F)(F)F)n3)CC1)N2 (stereo not drawn) [Compound 68, 2-(4-(6-(trifluoromethyl)pyridin-2-yl)piperazine-1-carbonyl)-5-cyanoindoline]	0.112
N#Cc1ccc2c(c1)CC(C(=O)N1CCN(c3cccc(C(F)(F)F)c3)CC1)N2 (stereo not drawn) [Compound 70, 2-(4-(3-(trifluoromethyl)phenyl)piperazine-1-carbonyl)-5-cyanoindoline]	0.092
N#Cc1ccc2[nH]c(C(=O)N3CCN(c4cccc(C(F)(F)F)n4)CC3)cc2c1 [Compound 71, 2-(4-(6-(trifluoromethyl)pyridin-2-yl)piperazine-1-carbonyl)-1H-5-cyanoindole]	0.866
N#Cc1ccc2[nH]c(C(=O)N3CCN(c4ccc(C(F)(F)F)cn4)CC3)cc2c1 [Compound 72, 2-(4-(5-(trifluoromethyl)pyridin-2-yl)piperazine-1-carbonyl)-1H-5-cyanoindole]	0.971
N#Cc1ccc2c(c1)CC(C(=O)N1CCN(c3cccc(C(F)(F)F)n3)CC1)O2 (stereo not drawn) [Compound 73, 2-(4-(6-(trifluoromethyl)pyridin-2-yl)piperazine-1-carbonyl)-2,3-2H-5-cyanobenzofuran]	0.261
CC(C)(C)N1CCN(C(=O)C2Cc3cc(C#N)ccc3N2)CC1 (stereo not drawn) [Compound 77, 2-(4-(tert-butyl)piperazine-1-carbonyl)-5-cyanoindoline]	0.091

The next lines start with the values.

IC50 [µM]	SMILES
0.028	N#Cc1ccc(OC2(C(=O)N3CCN(c4nccc(C(F)(F)F)n4)CC3)CCCC2)cc1 [Compound 50, 4-((1-(4-(4-(trifluoromethyl)pyrimidin-2-yl)piperazine-1-carbonyl)cyclopentyl)oxy)benz onitrile]
3.78	Cn1ccc2cc(SC3(C(=O)N4CCC(C(C)(C)C)CC4)CCCC3)ccc21 [Compound 67, 5-((1-(4-(tert-butyl)piperidine-1-carbonyl)cyclopentyl)sulfanyl)-1-methyl-1H-indole]
0.386	N#Cc1ccc2c(c1)CC(C(=O)N1CCN(c3nccc(C(F)(F)F)n3)CC1)N2 (stereo not drawn) [Compound 69, 2-(4-(4-(trifluoromethyl)pyrimidin-2-yl)piperazine-1-carbonyl)-5-cyanoindoline]
0.116	O=C(C1Cc2cc(Cl)ccc2O1)N1CCN(c2cccc(C(F)(F)F)n2)CC1 (stereo not drawn) [Compound 74, 2-(4-(6-(trifluoromethyl)pyridin-2-yl)piperazine-1-carbonyl)-2,3-2H-5-chlorobenzofuran]
0.285	Cc1cccc(N2CCN(C(=O)C3Cc4cc(C#N)ccc4O3)CC2)n1 (stereo not drawn) [Compound 75]
0.053	CC(C)(C)C1CCN(C(=O)C2Cc3cc(C#N)ccc3N2)CC1 (stereo not drawn) [Compound 78, 2-(4-(tert-butyl)piperidine-1-carbonyl)-5-cyanoindoline]
0.082	CC(C)(C)C1CCN(C(=O)C2Cc3cc(C#N)ccc3O2)CC1 (stereo not drawn) [Compound 79, 2-(4-(tert-butyl)piperidine-1-carbonyl)-2,3-2H-5-cyanoben-zofuran]
0.068	CC(C)(C)N1CCN(C(=O)C2Cc3cc(C#N)ccc3O2)CC1 (stereo not drawn) [Compound 80, 2-(4-(tert-butyl)piperazine-1-carbonyl)-2,3-2H-5-cyano-benzofuran]

target: T1, human TRPA1; assay: Inhibitory activity on human TRPA1 by conventional patch clamp assay; assay type: cell-based; conditions: HEK293 human TRPA1, 100 μM cinnamaldehyde
Source text: 2. Inhibitory Activity on Human TRPA1 by Conventional Patch Clamp Assay
In order to compare the influences of different measuring methods on the inhibitory activity of compounds, a conventional patch clamp method was used to further measure the inhibitory activity of compounds 1, 11, 31, 50, and 78 on TRPA1. The principle and procedures of the conventional patch clamp assay could be found in the literature report of Chen et al [Chen et al. Pain 2011, 152(5):1165-72].
Evaluation of TRPA1 inhibitory activity of compounds was conducted using the HEK293 recombinant cell strain (Creative Biogene, NY) stably expressing human TRPA1. Cells were cultured in a DMEM/F12 (3:1, Thermo Fisher Scientific) medium (containing 5% calf serum, 2 mM glutamine and 20 mM HEPES) in an incubator at 37° C. and air humidity containing 5% CO2.
During the experiment, the adherent cells were placed in a recording room under the inverted microscope. All experiments were performed at room temperature. Each cell itself was used as a control thereof.
Test compounds at a final concentration were all prepared on the testing day and then dissolved in the extracellular fluid. The extracellular fluid was (mM): NaCl, 137; KCl, 4; CaCl2, 1.8; MgCl2, 1; HEPES, 10; glucose 10; pH 7.4 (NaOH titration). All the solutions of the test compounds and control compounds contained 0.3% DMSO.
The compounds were all perfused with a perfusion system by virtue of their own gravity. At least two cells were tested for each concentration of the compound. After the current became stable, the variation in magnitude of the current before and after the compound was used to calculate the blocking effect of the compound. 100 μM cinnamaldehyde was used as the positive control.
The cells were transferred to the perfusion tank and perfused with extracellular fluid. The intracellular fluid was: 130 mM K-aspartate; 5 mM MgCl2; 5 mM EGTA; 10 mM
HEPES; pH 7.2 (KOH titration). The intracellular fluid was stored in a small amount in a −80 degree refrigerator in batches, and thawed on the day of the experiment. The electrode was pulled with PC-10 (Narishige, Japan). Whole-cell patch clamp recording was adopted and noise was filtered at one-fifth of the sampling frequency.
The cells were clamped at 20 mV, and then depolarized to 80 mV with a square wave of 500 milliseconds to obtain the TRPA1 current (see FIG. 1).
This procedure was repeated every 3 seconds. Cells were patched in a normal extracellular fluid, current A was obtained via voltage procedure testing, and then perfusion was conducted with an extracellular fluid added with 100 μM cinnamaldehyde to activate TRPA1 current to obtain current B. After the current stabilized, elution was conducted with normal extracellular fluid and perfusion was conducted with an extracellular fluid added with 100 μM cinnamaldehyde and a compound at various concentrations to obtain current C. Finally, blocking rate of the compound was obtained according to […], see FIG. 2.
Data collection and analysis was conducted using pCLAMP 10 (Molecular Devices, Union City, CA). Current stabilization meant that the variation in the current with time was within a limited range. The magnitude of the current after stabilization was used to reflect the effect of the compound in this process.

IC50 [µM]	SMILES
0.035	N#Cc1ccc(NC2(C(=O)N3CCN(c4cccc(C(F)(F)F)n4)CC3)CCCC2)cc1 [Compound 11, 4-((1-(4-(6-(trifluoromethyl)pyridin-2-yl)piperazine-1-carbonyl)cyclopentyl)amino)benz onitrile]
0.065	N#Cc1ccc(OC2(C(=O)N3CCN(c4nccc(C(F)(F)F)n4)CC3)CCCC2)cc1 [Compound 50, 4-((1-(4-(4-(trifluoromethyl)pyrimidin-2-yl)piperazine-1-carbonyl)cyclopentyl)oxy)benz onitrile]
0.083	CC(C)(C)C1CCN(C(=O)C2Cc3cc(C#N)ccc3N2)CC1 (stereo not drawn) [Compound 78, 2-(4-(tert-butyl)piperidine-1-carbonyl)-5-cyanoindoline]

test system: asthmatic rats; assay: Ovalbumin-induced asthma rat model (HE staining, lung tissue inflammation area, airway inflammation score); assay type: in vivo, SD rats; conditions: compared with the model group
Source text: 4. Effects of Compounds on Ovalbumin-Induced Asthma in Mouse and Rat Models
SPF-grade SD male rats (purchased from Zhejiang Academy of Medical Sciences, license number SCXK (Zhejiang) 2019-0002) with a body weight of 160-180 g; and SPF-grade female BABL/c mice (purchased from Zhejiang Weitong Lihua Experimental Animals Technology Co., Ltd., license number SCXK (Zhejiang) 2019-0001) with a body weight of 16-18 g were used. The above animals were raised by the Experimental Animal Center of Zhejiang Academy of Traditional Chinese Medicine.
Formulation of compound solution: compound was vortexed in a solvent system, dissolved by ultrasound, and prepared into a solution at a corresponding concentration, which was prepared just before use (the solvent system was composed of 5% Solutol HS 15, 5% DMSO and 90% physiological saline).
BABL/c mice or SD rats were randomly divided into: normal control group, model control group, dexamethasone group (0.72 mg/kg), and the respective test compound groups (one group for each dose), 10 mice in each group; 6 rats in each group.
Sensitization of rats: On Day 1 and Day 8, the model control group and the respective drug administration groups were intraperitoneally injected with 1 ml of 10% OVA sensitizing solution, and the normal group was intraperitoneally injected with an equal volume of normal saline.
Rat: from Day 15, the dexamethasone group and the respective test compound groups were intraperitoneally injected, 20 minutes before challenge, with the corresponding drugs with an injection volume of 0.3 ml/100 g; the model control group was intraperitoneally injected, 20 minutes before challenge, with an equal volume of solvent system; and the normal control group was not treated. Administration was conducted for 7 consecutive days. […]
The rat was anesthetized with 10% urethane at 1.3 ml/100 g volume, and the left lung tissue was taken and fixed in 4% neutral formaldehyde, paraffin-embedded according to routine operation, sectioned for HE staining. […] NIS-Elements D 3.2 software was used to manually integrate and measure the total area of lung tissue sections and the inflammation area under all fields of view, the total areas under each field of view were accumulated, and the percentage of the cumulative area of inflammation in the total area was calculated, wherein the percentage of inflammation area=cumulative area of inflammation/total area×100%.
All data were expressed as mean±standard deviation (x±s), and the data were processed by SPSS 20.0 statistical software. […]

SMILES	lung tissue inflammation and inflammatory cell infiltration around the airway (HE x40)
C[C@@H]1C[C@H]2[C@@H]3CCC4=CC(=O)C=C[C@]4(C)[C@@]3(F)[C@@H](O)C[C@]2(C)[C@@]1(O)C(=O)CO [dexamethasone, reference compound]	significant improvement
